{"source": "patent US20250375410A1", "about": "“COMPOUND FOR PREVENTING OR TREATING NONALCOHOLIC FATTY LIVER DISEASE AND COMPOSITION THEREOF” (SUNWAY BIOTECH CO., LTD., priority 2024, published 2025)", "type_in_all_cases": "in vivo, C57BL/6J mice", "key": {"[1]": {"system": "nonalcoholic fatty liver mice induced by high-fat feed", "experiment": "Liver lipid extraction and measurement (TG, TC) in high-fat feed induced nonalcoholic fatty liver mice", "description": "(§1) 1. Preparation of the Composition of the Present invention • (1) L008 and H008 groups: The composition is the red yeast rice of the present invention obtained by fermenting rice with the Monascus pilosus of the present invention as described in Embodiment 2. The daily dosage for adults in the L008 and H008 groups is 0.5 g/day and 2 g/day, containing 1.5 mg/day and 6 mg/day of monascinol (a compound having the structure of Formula (I)), respectively. • (2) Msol group: Monascinol (a compound having the structure of Formula (I)), with a daily dosage of 6 mg/day for adults.\n(§2) The experiment used 7-week-old male C57BL/6J strain mice purchased from the National Laboratory Animal Center. The initial body weight was about 23 g, with 12 mice per group. They were housed at 60% relative humidity, room temperature 25±1° C., with a 12-hour light cycle (8:00-20:00). The experiment lasted for 22 weeks, during which food and water were provided ad libitum. Body weight, food intake, and water consumption were measured weekly.\n(§3) The feeding dosage calculation was based on the experiment initial estimation method published by the U.S. Food and Drug Administration in 2005 (Estimating the maximum safe starting dose in initial clinical trials for therapeutics in adult healthy volunteers). Using a 60 kg adult as the standard, when conducting trials on higher experimental animals, the dosage conversion principle is to use 12.3 times the recommended daily intake per kilogram of human body weight (mg/kg bw/day) as the recommended daily intake per kilogram of mouse body weight. The calculation formula is as follows: […]\nEmbodiment 4 uses a high-fat feed to induce a nonalcoholic fatty liver animal model. The animal experiment lasted for 22 weeks. Animal test feed was prepared according to the formula of Research Diets (New Brunswick, NJ, USA) for D12450B and D12492. The grouping is as follows: • i. ND group: Normal animal group. • ii. HFD group: Control group, nonalcoholic fatty liver mice induced by high-fat feed. • iii. […]"}, "[2]": {"system": "nonalcoholic fatty liver mice induced by high-fat feed", "experiment": "Liver weight and liver/body weight ratio in high-fat feed induced nonalcoholic fatty liver mice", "description": "as §1, §2, §3\n(§4) Embodiment 4 uses a high-fat feed to induce a nonalcoholic fatty liver animal model. The animal experiment lasted for 22 weeks. Animal test feed was prepared according to the formula of Research Diets (New Brunswick, NJ, USA) for D12450B and D12492. The grouping is as follows: • i. ND group: Normal animal group. • ii. HFD group: Control group, nonalcoholic fatty liver mice induced by high-fat feed. • iii. L008 group: Nonalcoholic fatty liver mice induced by high-fat feed and gavaged daily with red yeast rice powder, equivalent to 0.5 g of the red yeast rice of the present invention consumed daily by a 60 kg adult, containing 1.5 mg monascinol (a compound having the structure of Formula (I)). • iv. H008 group: Nonalcoholic fatty liver mice induced by high-fat feed and gavaged daily with red yeast rice powder, equivalent to 2 g of the red yeast rice of the present invention consumed daily by a 60 kg adult, containing 6 mg monascinol (a compound having the structure of Formula (I)). • v. […]"}, "[3]": {"system": "gut microbiota of nonalcoholic fatty liver mice", "experiment": "Analysis of gut microbiota (full-length 16S sequencing) in nonalcoholic fatty liver mice", "conditions": "compared with the HFD group; L008, H008 and Msol groups", "description": "as §4, with “iv.” for “iv. H008 group: Nonalcoholic fatty liver mice induced by high-fat feed and gavaged daily with red yeast rice powder, equivalent to 2 g of the red yeast rice of the present invention consumed daily by a 60 kg adult, containing 6 mg monascinol (a compound having the structure of Formula (I)). • v.”\n(1) Extraction of Genomic DNA and PCR Amplification and Purification Total genomic DNA was extracted from samples (QIAamp PowerFecal DNA, Qiagen). DNA concentration was determined using a Qubit 4.0 fluorometer (Thermo Scientific) and adjusted to 1 ng/μL. […] PCR reactions were performed using KAPA HiFi HotStart ReadyMix (Roche): 95° C., 3 minutes; 20-27 cycles (sample-dependent): 95° C., 30 seconds, 57° C., 30 seconds, 72° C., 60 seconds; 72° C. for 5 minutes, and final storage at 4° C. PCR products were monitored on 1% agarose gel. […]"}, "[4]": {"system": "nonalcoholic fatty liver mice induced by high-fat feed", "experiment": "Liver histopathology (H&E staining) assessment in high-fat feed induced nonalcoholic fatty liver mice", "description": "as §1, §2, §3\nEmbodiment 4 uses a high-fat feed to induce a nonalcoholic fatty liver animal model. The animal experiment lasted for 22 weeks. Animal test feed was prepared according to the formula of Research Diets (New Brunswick, NJ, USA) for D12450B and D12492. The grouping is as follows: • i. ND group: Normal animal group. • ii. HFD group: Control group, nonalcoholic fatty liver mice induced by high-fat feed. • iii. L008 group: Nonalcoholic fatty liver mice induced by high-fat feed and gavaged daily with red yeast rice powder, equivalent to 0.5 g of the red yeast rice of the present invention consumed daily by a 60 kg adult, containing 1.5 mg monascinol (a compound having the structure of Formula (I)). • iv. H008 group: Nonalcoholic fatty liver mice induced by high-fat feed and gavaged daily with red yeast rice powder, equivalent to 2 g of the red yeast rice of the present invention consumed daily by a 60 kg adult, containing 6 mg monascinol (a compound having the structure of Formula (I)). • v. Msol group: Nonalcoholic fatty liver mice induced by high-fat feed and gavaged daily with monascinol (a compound having the structure of Formula (I)) powder, equivalent to 6 mg of monascinol (a compound having the structure of Formula (I)) powder consumed daily by a 60 kg adult.\nIn the 22nd week of the experiment, food was withheld for 12-14 hours before blood collection. […] The obtained blood samples were centrifuged at 4° C., 3,000×g for 15 minutes. The upper layer of blood was aliquoted into eppendorf tubes and stored at −80° C. The liver was weighed, and the second largest lobe was preserved in 10% pathological formalin. The remaining liver was washed with 0.9% physiological saline, and along with the kidneys, placed in zipper bags and stored at −80° C.\nThe liver was fixed in 10% formalin, dehydrated, and embedded in paraffin to make tissue sections. […]"}, "[5]": {"system": "nonalcoholic fatty liver mice induced by high-fat feed", "experiment": "Serum liver function indices AST and ALT in high-fat feed induced nonalcoholic fatty liver mice", "description": "as §1, §2, §3\nEmbodiment 4 uses a high-fat feed to induce a nonalcoholic fatty liver animal model. The animal experiment lasted for 22 weeks. […]\nA biochemical auto-analyzer (Model Beckman-700, purchased from Fullerton, CA, USA) was used for detection. The items detected were: TC (Total Cholesterol), TG (Triglyceride), AST (Aspartate Aminotransferase) and ALT (Alanine Aminotransferase) activities."}, "[6]": {"conditions": "Msol group: monascinol 0.0012 g/kg bw/day by gavage, high-fat diet, 22 weeks, mean ± SD, n = 8"}, "[7]": {"conditions": "lesion severity grade (0 to 4), Msol group: monascinol 0.0012 g/kg bw/day, high-fat diet, 22 weeks, mean ± SD, n = 8"}, "[8]": {"conditions": "serum, Msol group: monascinol 0.0012 g/kg bw/day by gavage, high-fat diet, 22 weeks, mean ± SD, n = 8"}}, "note": "Marks after values point to notes of the source that are not given here.", "data": [{"substance": "Monascinol [Msol]", "values": [{"measurement": "Liver TC", "setting": "[1]; [6]", "value": "1.02 ± 0.32 ^ab mg/g"}, {"measurement": "Liver TG", "setting": "[1]; [6]", "value": "7.25 ± 0.71 ^a mg/g"}, {"measurement": "Effect on TC and TG in the liver, in words", "setting": "[1]; versus HFD group, p<0.05", "value": "effectively reduced the accumulation of TC and TG in the liver"}, {"measurement": "Liver Weight", "setting": "[2]; [6]", "value": "1.01 ± 0.06 ^a g"}, {"measurement": "Liver/Body Weight", "setting": "[2]; [6]", "value": "2.85 ± 0.24 ^a %"}, {"measurement": "Effect on liver weight, in words", "setting": "[2]; versus HFD group, p<0.05, various doses (L008 and H008 groups) and Msol", "value": "significantly reducing liver weight"}, {"measurement": "Effect on liver/body weight ratio, in words", "setting": "[2]; versus HFD group, various doses (L008 and H008 groups) and Msol", "value": "improving the liver/body weight ratio"}, {"measurement": "Abundance of Blautia and Intestinimonas in the intestine, in words (FIG. 9)", "setting": "[3]", "value": "increase the microbial populations of Blautia and Intestinimonas"}, {"measurement": "Fatty change with macro-vesicles, multifocal", "setting": "[4]; [7]", "value": "0.3 ± 0.7 ^a"}, {"measurement": "Fatty change with micro-vesicles, multifocal", "setting": "[4]; [7]", "value": "0.1 ± 0.4 ^a"}, {"measurement": "Fatty change, general", "setting": "[4]; [7]", "value": "0.3 ± 0.7 ^a"}, {"measurement": "Inflammation, granulomatous, multifocal", "setting": "[4]; lesion severity grade (0 to 4), Msol group: monascinol 0.0012 g/kg bw/day, high-fat diet, 22 weeks, n = 8", "value": "0 ^a"}, {"measurement": "Effect on accumulation of liver lipid droplets / fatty infiltration, in words (FIG. 7, Table 6)", "setting": "[4]; versus HFD group, p<0.05", "value": "significantly improved the accumulation of liver lipid droplets and fatty infiltration"}, {"measurement": "ALT Activity", "setting": "[5]; [8]", "value": "25.3 ± 3.4 ^a U/L"}, {"measurement": "AST Activity", "setting": "[5]; [8]", "value": "60.6 ± 3.7 ^a U/L"}, {"measurement": "Effect on serum AST and ALT activities, in words", "setting": "[5]; versus HFD group, various doses (L008 and H008 groups) and Monascinol", "value": "significantly reduced AST and ALT activities"}]}]}
